Legend:
Assay in all cases: relative viability (nuclei count vs DMSO), 5 days (fraction); higher = more cells survive
Dabrafenib + Lapatinib = compound: CC(C)(C)c1nc(-c2cccc(NS(=O)(=O)c3c(F)cccc3F)c2F)c(-c2ccnc(N)n2)s1 [Dabrafenib] + CS(=O)(=O)CCNCc1ccc(-c2ccc3ncnc(Nc4ccc(OCc5cccc(F)c5)c(Cl)c4)c3c2)o1 [Lapatinib] (partner 2 µM)
How it was run: (§1)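 Values are medians from duplicate plates. Each reflects relative viability, defined as the nuclei count of treated wells over that of vehicle wells. Lung cancer cell lines in 1536-well plates were pin-tool dosed one day after seeding with one drug alone or with a fixed anchor-drug dose plus five library-drug doses (not always all listed) in √10 steps, then fixed, stained and imaged at 4× after 5 days.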

VX-702 + Olaparib = compound: NC(=O)c1ccc(N(C(N)=O)c2c(F)cccc2F)nc1-c1ccc(F)cc1F [VX-702] + O=C(c1cc(Cc2n[nH]c(=O)c3ccccc23)ccc1F)N1CCN(C(=O)C2CC2)CC1 [Olaparib] (partner 8 µM)
How it was run: as §1

VX-702 + Crizotinib = compound: NC(=O)c1ccc(N(C(N)=O)c2c(F)cccc2F)nc1-c1ccc(F)cc1F [VX-702] + C[C@@H](Oc1cc(-c2cnn(C3CCNCC3)c2)cnc1N)c1c(Cl)ccc(F)c1Cl [Crizotinib] (partner 1 µM)
How it was run: as §1

Dabrafenib + Dasatinib = compound: CC(C)(C)c1nc(-c2cccc(NS(=O)(=O)c3c(F)cccc3F)c2F)c(-c2ccnc(N)n2)s1 [Dabrafenib] + Cc1nc(Nc2ncc(C(=O)Nc3c(C)cccc3Cl)s2)cc(N2CCN(CCO)CC2)n1 [Dasatinib] (partner 0.075 µM)
How it was run: as §1

Cell Line	relative viability (Dabrafenib + Lapatinib; first compound 0.003 µM)	relative viability (Dabrafenib + Lapatinib; first compound 0.009487 µM)	relative viability (Dabrafenib + Lapatinib; first compound 0.03 µM)	relative viability (Dabrafenib + Lapatinib; first compound 0.09487 µM)	relative viability (Dabrafenib + Lapatinib; first compound 0.3 µM)	relative viability (VX-702 + Olaparib; first compound 0.02 µM)	relative viability (VX-702 + Olaparib; first compound 0.2 µM)	relative viability (VX-702 + Olaparib; first compound 0.6325 µM)	relative viability (VX-702 + Olaparib; first compound 2 µM)	relative viability (VX-702 + Crizotinib; first compound 0.02 µM)	relative viability (VX-702 + Crizotinib; first compound 0.2 µM)	relative viability (VX-702 + Crizotinib; first compound 0.6325 µM)	relative viability (VX-702 + Crizotinib; first compound 2 µM)	relative viability (Dabrafenib + Dasatinib; first compound 0.009487 µM)	relative viability (Dabrafenib + Dasatinib; first compound 0.03 µM)	relative viability (Dabrafenib + Dasatinib; first compound 0.09487 µM)	relative viability (Dabrafenib + Dasatinib; first compound 0.3 µM)	relative viability (Dabrafenib + Dasatinib; first compound 0.003 µM)
HCC-44	0.996	0.982	1.11	0.86	0.964	1.01	0.982	0.989	0.963	0.802	0.739	0.817	0.971					
HCC-78		0.697	0.702	0.754	0.838	0.743	0.671	0.83	0.867	0.348	0.327	0.321	0.341	0.492	0.483	0.251	0.408	
HCC-366		1.08	0.776	1.05	1.2	0.409	0.361	0.353	0.269	0.588	0.396	0.525	0.601	0.692	0.68	0.627	0.584	0.197
HCC-827	0.133	0.228	0.185	0.185	0.186	0.648	0.603	0.59	0.562	0.922	0.9	0.869	0.906	0.384	0.287		0.382	0.44
HOP-62		1.07	0.822	0.889	0.784	0.478	0.611	0.553	0.65	0.946	0.651	0.549	0.915	0.738	0.588	0.603	0.539	0.509
IA-LM	0.774	0.7	0.835	0.689	0.464	0.833	0.841	0.994	0.937	0.792	0.862	0.722	1.05					
LC-2-ad	0.862	1.01	0.976	0.886	0.925	0.724	0.678	0.799	0.776	0.502		0.449	0.504	0.802	0.518	0.512	0.677	
LCLC-97TM1		1.19	0.994		0.916	0.428	0.307	0.502	0.69	0.285	0.342	0.421	0.558	0.847	0.843	0.36	0.534	0.574
LCLC-103H						0.788	0.757	0.795	0.817	1.04	0.973	1.13	1.07	0.526	0.513	0.447	0.379	0.495
LK-2	0.885	1.02		0.902	0.985	0.68	0.601	0.555	0.751	0.258		0.223	0.23	0.274		0.285	0.276	0.208
NCI-H441						0.567	0.553	0.572	0.661	0.715	0.707	0.711	0.838	0.623	0.689	0.55	0.456	
NCI-H522						0.754	0.678	0.667	0.619					0.862	0.671	0.83	0.899	
NCI-H1299	1.01	0.952	0.957	0.932	0.824	0.982	0.924	0.937	0.862	1.07	0.97	0.942	1.07					
NCI-H1395		1.02	0.821	0.85	0.973	0.447	0.46	0.502	0.448					0.462	0.396	0.409	0.366	0.375
NCI-H1563	0.831	1.06	0.633	0.928	0.938					0.848	0.875	0.83	0.865	0.46	0.459	0.461	0.456	0.408
NCI-H1648						0.817	0.851	0.689	0.781									
NCI-H1703	1.2	1.6	0.938	0.896	1.09	0.415	0.361	0.315	0.47	0.645	0.585	0.608	0.78					
NCI-H1793	0.522	1	0.598	0.741	0.612	0.939		0.858	1.01					0.503			0.399	
NCI-H2342						0.401	0.457	0.475	0.466					0.309	0.344	0.323	0.334	0.288
SW 900						0.772	0.878	0.887	0.893					0.581	0.371		0.705	

Reference: the supplement of paper PMC10307832
